Reference: ChEMBL document CHEMBL5291721, “A preclinical secondary pharmacology resource illuminates target-adverse drug reaction associations of marketed drugs” (Nat Commun, 2023)

What was measured:
Thromboxane A2 receptor [1] = biological target: T1, Thromboxane A2 receptor (Homo sapiens, UniProt P21731)
T1 sequence (P21731 whole entry): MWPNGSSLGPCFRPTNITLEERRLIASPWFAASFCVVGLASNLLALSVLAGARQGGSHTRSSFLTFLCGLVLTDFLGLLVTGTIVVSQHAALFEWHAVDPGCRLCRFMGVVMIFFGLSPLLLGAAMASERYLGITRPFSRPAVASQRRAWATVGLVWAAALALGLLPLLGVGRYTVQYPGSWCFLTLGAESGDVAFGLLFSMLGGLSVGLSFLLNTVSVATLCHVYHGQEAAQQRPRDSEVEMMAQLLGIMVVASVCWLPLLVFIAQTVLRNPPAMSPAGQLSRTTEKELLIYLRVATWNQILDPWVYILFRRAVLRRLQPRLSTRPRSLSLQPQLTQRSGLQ

[2] = biological target: T2, Alpha-2B adrenergic receptor (Homo sapiens, UniProt P18089)
T2 sequence (P18089 whole entry): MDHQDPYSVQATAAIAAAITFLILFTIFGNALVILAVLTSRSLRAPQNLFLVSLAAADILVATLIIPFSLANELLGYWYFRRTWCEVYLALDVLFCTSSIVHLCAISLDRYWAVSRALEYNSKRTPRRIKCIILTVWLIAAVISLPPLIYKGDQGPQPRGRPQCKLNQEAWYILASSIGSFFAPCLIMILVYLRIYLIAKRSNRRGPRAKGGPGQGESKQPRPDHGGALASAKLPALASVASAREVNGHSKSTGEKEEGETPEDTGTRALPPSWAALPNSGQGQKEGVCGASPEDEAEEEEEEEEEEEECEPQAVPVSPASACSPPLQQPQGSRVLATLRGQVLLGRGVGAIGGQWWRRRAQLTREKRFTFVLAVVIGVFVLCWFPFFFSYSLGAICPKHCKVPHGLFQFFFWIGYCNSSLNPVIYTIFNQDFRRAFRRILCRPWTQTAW

Cannabinoid receptor 1 = Cannabinoid receptor 1 (Homo sapiens, UniProt P21554); format: functional, cell-based
[3] = biological target: Gamma-aminobutyric acid receptor subunit alpha-1 (Rattus norvegicus, UniProt P62813)
Histamine H1 receptor = Histamine H1 receptor (Homo sapiens, UniProt P35367)
[4] = biological target: Prostaglandin G/H synthase 1 (Homo sapiens, UniProt P23219); format: functional
[5] = biological target: T3, Alpha-1A adrenergic receptor (Homo sapiens, UniProt P35348); format: functional, cell-based
T3 sequence (P35348 whole entry): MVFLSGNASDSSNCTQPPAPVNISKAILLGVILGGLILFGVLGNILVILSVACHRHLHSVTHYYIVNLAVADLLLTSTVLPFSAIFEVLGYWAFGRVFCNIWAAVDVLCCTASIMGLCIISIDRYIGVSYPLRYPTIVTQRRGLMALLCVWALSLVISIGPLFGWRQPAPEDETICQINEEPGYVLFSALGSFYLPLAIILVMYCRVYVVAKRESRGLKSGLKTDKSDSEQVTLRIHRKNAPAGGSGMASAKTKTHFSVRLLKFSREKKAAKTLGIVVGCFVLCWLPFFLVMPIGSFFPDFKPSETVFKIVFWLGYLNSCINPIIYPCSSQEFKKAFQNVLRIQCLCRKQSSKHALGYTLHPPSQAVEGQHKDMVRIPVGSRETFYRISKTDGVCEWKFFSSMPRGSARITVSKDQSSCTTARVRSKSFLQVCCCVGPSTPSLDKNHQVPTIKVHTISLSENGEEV

[6] = biological target: Sodium-dependent dopamine transporter (Homo sapiens, UniProt Q01959)
Thromboxane A2 receptor [7] = biological target: T1, Thromboxane A2 receptor; format: functional, cell-based
Acetylcholinesterase = Acetylcholinesterase (Homo sapiens, UniProt P22303); format: functional
[8] = biological target: T4, Muscarinic acetylcholine receptor M2 (Homo sapiens, UniProt P08172)
T4 sequence (P08172 whole entry): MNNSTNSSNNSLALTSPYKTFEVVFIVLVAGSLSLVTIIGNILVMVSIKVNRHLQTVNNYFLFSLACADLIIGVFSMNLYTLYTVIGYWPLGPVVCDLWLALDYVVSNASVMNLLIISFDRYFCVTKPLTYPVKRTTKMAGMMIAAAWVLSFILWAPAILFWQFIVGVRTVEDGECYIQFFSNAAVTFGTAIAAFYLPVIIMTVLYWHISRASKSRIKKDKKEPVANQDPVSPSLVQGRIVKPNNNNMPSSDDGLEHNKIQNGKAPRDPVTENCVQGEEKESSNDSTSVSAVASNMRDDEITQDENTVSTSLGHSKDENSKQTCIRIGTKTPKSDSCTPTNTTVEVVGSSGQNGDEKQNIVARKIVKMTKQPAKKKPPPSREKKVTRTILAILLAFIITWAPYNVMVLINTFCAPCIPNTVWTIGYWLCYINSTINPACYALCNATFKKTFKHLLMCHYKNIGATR

[9] = biological target: T5, Alpha-2A adrenergic receptor (Homo sapiens, UniProt P08913)
T5 sequence (P08913 whole entry): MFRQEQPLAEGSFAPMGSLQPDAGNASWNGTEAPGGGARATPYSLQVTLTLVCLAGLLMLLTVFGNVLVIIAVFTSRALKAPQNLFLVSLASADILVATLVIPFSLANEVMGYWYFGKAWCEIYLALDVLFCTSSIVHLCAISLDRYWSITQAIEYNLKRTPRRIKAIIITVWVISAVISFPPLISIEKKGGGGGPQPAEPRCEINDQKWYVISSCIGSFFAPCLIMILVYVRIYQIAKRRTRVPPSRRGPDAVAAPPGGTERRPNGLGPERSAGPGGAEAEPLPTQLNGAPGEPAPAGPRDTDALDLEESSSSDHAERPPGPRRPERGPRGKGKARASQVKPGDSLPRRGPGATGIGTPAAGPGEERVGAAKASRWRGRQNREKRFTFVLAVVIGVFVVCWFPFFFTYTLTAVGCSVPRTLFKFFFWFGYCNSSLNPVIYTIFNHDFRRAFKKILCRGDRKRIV
Further: assay procedure not described here.

Sequence of Cannabinoid receptor 1 (P21554 whole entry): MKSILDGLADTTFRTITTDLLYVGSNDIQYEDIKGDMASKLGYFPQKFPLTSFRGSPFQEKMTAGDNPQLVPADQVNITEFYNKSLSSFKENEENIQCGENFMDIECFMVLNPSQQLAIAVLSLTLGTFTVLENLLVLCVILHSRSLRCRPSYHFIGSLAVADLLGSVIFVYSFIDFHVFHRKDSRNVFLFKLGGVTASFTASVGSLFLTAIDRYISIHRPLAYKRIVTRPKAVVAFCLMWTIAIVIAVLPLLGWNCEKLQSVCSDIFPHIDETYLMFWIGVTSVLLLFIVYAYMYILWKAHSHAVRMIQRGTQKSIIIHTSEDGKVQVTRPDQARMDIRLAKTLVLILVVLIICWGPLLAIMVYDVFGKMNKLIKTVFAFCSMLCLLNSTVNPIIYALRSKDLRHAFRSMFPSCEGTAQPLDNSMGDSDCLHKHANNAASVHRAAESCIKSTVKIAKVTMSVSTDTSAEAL
Sequence of Acetylcholinesterase (P22303 whole entry): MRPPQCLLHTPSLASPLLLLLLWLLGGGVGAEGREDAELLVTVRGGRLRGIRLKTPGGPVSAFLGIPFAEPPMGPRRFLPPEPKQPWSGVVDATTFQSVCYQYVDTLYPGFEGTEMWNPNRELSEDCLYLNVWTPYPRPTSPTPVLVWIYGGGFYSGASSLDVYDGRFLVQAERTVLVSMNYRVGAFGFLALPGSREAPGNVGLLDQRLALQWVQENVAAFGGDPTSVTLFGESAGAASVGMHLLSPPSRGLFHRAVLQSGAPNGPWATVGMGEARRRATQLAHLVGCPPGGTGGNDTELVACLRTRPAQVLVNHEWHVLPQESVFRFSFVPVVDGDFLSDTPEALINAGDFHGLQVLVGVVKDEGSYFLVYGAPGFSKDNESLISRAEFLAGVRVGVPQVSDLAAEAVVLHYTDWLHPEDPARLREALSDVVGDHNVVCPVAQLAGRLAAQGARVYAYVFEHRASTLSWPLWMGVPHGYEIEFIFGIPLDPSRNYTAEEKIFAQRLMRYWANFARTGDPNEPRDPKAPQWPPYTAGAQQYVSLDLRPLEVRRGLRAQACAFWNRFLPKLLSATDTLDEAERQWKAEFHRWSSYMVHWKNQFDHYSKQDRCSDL
Sequence of Gamma-aminobutyric acid receptor subunit alpha-1 (P62813 whole entry): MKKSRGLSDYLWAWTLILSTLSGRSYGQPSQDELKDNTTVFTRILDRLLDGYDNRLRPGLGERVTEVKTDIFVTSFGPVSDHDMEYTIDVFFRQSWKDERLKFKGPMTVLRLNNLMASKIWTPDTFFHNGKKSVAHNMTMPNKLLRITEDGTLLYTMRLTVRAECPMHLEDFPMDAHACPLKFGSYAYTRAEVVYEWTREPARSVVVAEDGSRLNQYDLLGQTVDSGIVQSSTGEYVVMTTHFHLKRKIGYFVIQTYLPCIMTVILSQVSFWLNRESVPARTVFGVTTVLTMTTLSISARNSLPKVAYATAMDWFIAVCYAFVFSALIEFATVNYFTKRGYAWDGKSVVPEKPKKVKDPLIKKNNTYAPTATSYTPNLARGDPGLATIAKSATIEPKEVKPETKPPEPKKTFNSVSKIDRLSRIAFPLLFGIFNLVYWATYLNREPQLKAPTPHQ
Sequence of Histamine H1 receptor (P35367 whole entry): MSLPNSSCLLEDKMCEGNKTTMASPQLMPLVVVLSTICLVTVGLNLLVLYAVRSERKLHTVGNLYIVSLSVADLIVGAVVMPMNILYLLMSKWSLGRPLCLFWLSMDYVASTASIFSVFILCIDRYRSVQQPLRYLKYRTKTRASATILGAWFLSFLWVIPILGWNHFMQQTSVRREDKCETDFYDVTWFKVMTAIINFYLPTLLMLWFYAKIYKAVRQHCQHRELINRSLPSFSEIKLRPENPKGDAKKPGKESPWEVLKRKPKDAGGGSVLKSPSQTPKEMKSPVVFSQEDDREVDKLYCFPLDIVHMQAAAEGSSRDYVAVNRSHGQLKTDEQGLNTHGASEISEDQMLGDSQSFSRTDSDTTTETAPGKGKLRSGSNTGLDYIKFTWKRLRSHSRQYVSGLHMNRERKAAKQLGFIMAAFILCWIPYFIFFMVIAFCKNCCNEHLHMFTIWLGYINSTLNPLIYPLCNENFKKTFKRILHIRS
Sequence of Sodium-dependent dopamine transporter (Q01959 whole entry): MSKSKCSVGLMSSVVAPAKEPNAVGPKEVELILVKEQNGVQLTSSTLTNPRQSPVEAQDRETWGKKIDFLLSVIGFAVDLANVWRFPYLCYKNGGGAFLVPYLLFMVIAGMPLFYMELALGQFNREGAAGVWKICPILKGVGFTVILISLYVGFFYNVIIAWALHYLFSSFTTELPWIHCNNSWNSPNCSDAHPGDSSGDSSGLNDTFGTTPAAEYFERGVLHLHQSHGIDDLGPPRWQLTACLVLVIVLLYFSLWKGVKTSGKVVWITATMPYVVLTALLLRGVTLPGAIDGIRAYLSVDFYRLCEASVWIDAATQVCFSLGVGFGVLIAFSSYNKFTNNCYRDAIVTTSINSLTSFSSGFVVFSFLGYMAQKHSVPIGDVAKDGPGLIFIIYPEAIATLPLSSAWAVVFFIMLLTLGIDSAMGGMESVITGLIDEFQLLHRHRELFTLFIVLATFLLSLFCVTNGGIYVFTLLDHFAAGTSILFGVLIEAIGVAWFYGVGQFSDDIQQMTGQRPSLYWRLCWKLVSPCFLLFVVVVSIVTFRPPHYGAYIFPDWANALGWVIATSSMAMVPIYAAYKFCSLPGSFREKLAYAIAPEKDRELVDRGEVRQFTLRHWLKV
Sequence of Prostaglandin G/H synthase 1 (P23219 whole entry): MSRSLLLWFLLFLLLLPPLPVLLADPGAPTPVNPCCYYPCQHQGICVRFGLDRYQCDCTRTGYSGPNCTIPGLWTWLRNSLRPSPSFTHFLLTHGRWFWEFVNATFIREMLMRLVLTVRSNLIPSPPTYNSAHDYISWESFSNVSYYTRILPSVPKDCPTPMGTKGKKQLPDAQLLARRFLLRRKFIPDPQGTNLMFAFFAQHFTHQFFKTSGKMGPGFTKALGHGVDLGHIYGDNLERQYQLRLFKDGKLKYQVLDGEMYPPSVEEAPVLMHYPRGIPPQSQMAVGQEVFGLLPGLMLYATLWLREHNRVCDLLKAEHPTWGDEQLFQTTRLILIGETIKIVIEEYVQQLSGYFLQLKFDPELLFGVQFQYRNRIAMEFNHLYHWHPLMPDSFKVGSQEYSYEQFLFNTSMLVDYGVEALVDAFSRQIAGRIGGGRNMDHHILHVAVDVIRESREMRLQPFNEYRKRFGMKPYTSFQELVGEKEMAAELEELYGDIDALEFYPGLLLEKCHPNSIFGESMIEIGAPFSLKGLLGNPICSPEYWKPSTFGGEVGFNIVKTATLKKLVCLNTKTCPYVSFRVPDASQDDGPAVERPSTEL

Row | SMILES | AC50 (Thromboxane A2 receptor [1]) [µM] | AC50 [2] [µM] | AC50 (Cannabinoid receptor 1) [µM] | AC50 [3] [µM] | AC50 (Histamine H1 receptor) [µM] | AC50 [4] [µM] | AC50 [5] [µM] | AC50 [6] [µM] | AC50 (Thromboxane A2 receptor [7]) [µM] | AC50 (Acetylcholinesterase) [µM] | AC50 [8] [µM] | AC50 [9] [µM]
1 | CCN(CC)CCn1c(=O)c(Cc2ccc(OC)cc2)nc2ccccc21 [CAROVERINE] | > 30 | 21 | > 30 | > 30 | 25 | – | – | – | – | – | – | –
2 | CN(C)CCc1c[nH]c2ccc(CS(=O)(=O)N3CCCC3)cc12 [ALMOTRIPTAN] | – | 30 | > 30 | > 30 | > 30 | – | – | – | – | – | – | –
3 | CC[N+](CC)(CCNC(=O)C(=O)NCC[N+](CC)(CC)Cc1ccccc1Cl)Cc1ccccc1Cl [AMBENONIUM] | > 30 | > 30 | > 30 | > 30 | > 30 | – | – | – | – | – | – | –
4 | CN(C)CCN(Cc1ccccc1)c1ccccn1 [TRIPELENNAMINE] | > 10 | 11 | – | > 10 | 0.08 | > 30 | > 30 | 0.619 | > 30 | > 30 | 4.72 | 3.08
5 | C[C@H](Nc1ncnc2[nH]cnc12)c1cc2cccc(Cl)c2c(=O)n1-c1ccccc1 [DUVELISIB] | – | > 30 | > 30 | – | > 30 | > 30 | – | > 30 | > 30 | > 30 | > 30 | > 30
6 | c1cnc2cc3c(cc2n1)[C@@H]1CNC[C@H]3C1 [VARENICLINE] | – | > 30 | > 30 | – | > 30 | – | – | – | – | – | – | –
7 | Cn1cnc2c(F)c(Nc3ccc(Br)cc3F)c(C(=O)NOCCO)cc21 [BINIMETINIB] | – | > 30 | > 30 | – | > 30 | – | – | – | – | – | – | –
8 | O=C(Cc1cccs1)N[C@@H]1C(=O)N2C(C(=O)[O-])=C(C[n+]3ccccc3)CS[C@H]12 [CEPHALORIDINE] | – | > 30 | > 30 | > 30 | > 30 | 16.4 | – | > 30 | > 30 | > 30 | > 30 | > 30
9 | Nc1c2c(nc3ccccc13)CCCC2O (stereo not drawn) [VELNACRINE] | – | > 30 | > 30 | – | > 30 | – | – | – | – | – | – | –
10 | C[C@H](CCC(=O)O)[C@H]1CC[C@H]2[C@@H]3[C@H](O)C[C@@H]4C[C@H](O)CC[C@]4(C)[C@H]3CC[C@]12C [CHENODIOL] | – | > 30 | > 30 | – | > 30 | – | – | – | – | – | – | –
11 | C#CCN(C)Cc1ccccc1 [PARGYLINE] | – | > 30 | > 30 | > 30 | > 30 | > 30 | – | > 30 | > 30 | > 30 | > 30 | > 30
12 | C[C@@H](O)[C@H]1C(=O)N2C(C(=O)O)=C(SCCN=CN)C[C@H]12 [IMIPENEM ANHYDROUS] | – | > 300 | > 300 | – | > 300 | – | – | – | – | – | – | –
13 | CO[C@@H]1[C@@H](OC(N)=O)[C@@H](O)[C@H](Oc2ccc3c(O)c(NC(=O)c4ccc(O)c(CC=C(C)C)c4)c(=O)oc3c2C)OC1(C)C [NOVOBIOCIN] | – | > 30 | > 30 | – | > 30 | – | – | – | – | – | – | –
14 | OCCOCCN1CCN(C(c2ccccc2)c2ccc(Cl)cc2)CC1 (stereo not drawn) [HYDROXYZINE] | > 30 | 8 | > 30 | > 10 | 0.039 | – | – | – | – | – | – | –

The next lines start with results.

Row | AC50 (Thromboxane A2 receptor [1]) [µM] | AC50 [2] [µM] | AC50 (Cannabinoid receptor 1) [µM] | AC50 [3] [µM] | AC50 (Histamine H1 receptor) [µM] | SMILES | AC50 [4] [µM] | AC50 [5] [µM] | AC50 [6] [µM] | AC50 (Thromboxane A2 receptor [7]) [µM] | AC50 (Acetylcholinesterase) [µM] | AC50 [8] [µM] | AC50 [9] [µM]
15 | > 30 | > 10 | > 30 | > 10 | > 10 | C=CC1=C(C(=O)O)N2C(=O)[C@@H](NC(=O)/C(=N\O)c3csc(N)n3)[C@H]2SC1 | – | – | – | – | – | – | –
16 | > 30 | > 30 | > 30 | > 30 | > 30 | CC(=O)NC[C@H]1CN(c2ccc(N3CCOCC3)c(F)c2)C(=O)O1 [LINEZOLID] | – | – | – | – | – | – | –
17 | > 30 | > 10 | > 30 | > 10 | > 10 | C[C@]12CCC(=O)C=C1CC[C@H]1[C@@H]3CC[C@](O)(C(=O)CO)[C@@]3(C)C[C@H](O)[C@@]12F [FLUDROCORTISONE] | – | – | – | – | – | – | –
18 | – | 19 | > 30 | – | 0.11 | CN(C)CCOC(c1ccc(Cl)cc1)c1ccccn1 (stereo not drawn) [CARBINOXAMINE] | – | – | – | – | – | – | –
19 | 29 | > 30 | > 30 | > 30 | > 30 | CCOC(=O)Nc1ccc(NCc2ccc(F)cc2)nc1N [FLUPIRTINE] | – | – | – | – | – | – | –
20 | > 30 | > 30 | > 30 | 29 | 8.56 | CC(C)/N=c1\cc2n(-c3ccc(Cl)cc3)c3ccccc3nc-2cc1Nc1ccc(Cl)cc1 [CLOFAZIMINE] | – | – | – | – | – | – | –
21 | – | > 30 | > 30 | – | > 30 | COc1cc2c(cc1OC)C1CC(=O)C(CC(C)C)CN1CC2 (stereo not drawn) [TETRABENAZINE] | – | – | – | – | – | – | –
22 | > 30 | > 30 | > 30 | > 30 | > 30 | CC(=O)SCC(Cc1ccccc1)C(=O)NCC(=O)OCc1ccccc1 (stereo not drawn) [RACECADOTRIL] | – | – | – | – | – | – | –
